From patent US20250345492A1, “AN ANTIBACTERIAL POLYPEPTIDE COMPOUND, A MEDICAL DEVICE, HYDROGEL AND USE THEREOF” (priority 2020, published 2025)
Ends that are not written are not given here.

Legend:
E. coli (ATCC 25922) = experiment: Mouse septic peritonitis model, survival; assay type: in vivo, Kunming mice; settings: 20 mg/kg intraperitoneally one hour after E. coli inoculation, 7 days of observation
Procedure: The determination of the in vivo antibacterial activity of the antibacterial polypeptide compounds is to reflect the antibacterial activity in vivo by detecting the survival rate of mice infected with bacteria or fungi.
Taking compounds 2, 8, 9, 13 and 15 of the present invention as examples, the in vivo antibacterial effects of the antibacterial polypeptide compounds were analyzed. The mice used in this test were Kunming mice, which were placed in constant-temperature environment (22±1° C.). Simply, 36 Kunming mice (18-22 g of body weight) were randomly divided into 6 groups and intraperitoneally injected with 0.2 ml of 3×10^8 CFU/mL E. coli (ATCC 25922) on Day 1 to establish mouse septic peritonitis model. The mice were administered intraperitoneally one hour after inoculation with the bacteria, and then the compounds 2, 8, 9, 13 and 15 were injected intraperitoneally at a dose of 20 mg/kg of body weight. Polymyxin B (20 mg/kg) was selected as a positive reference control, and a negative control group received intraperitoneal injection of sterile saline. After 7 days of observation, the survival rates of mice in administration groups and control groups were calculated to create survival curves.

[1] = tested on: E. coli ML-35 (ATCC 43837); experiment: Inner membrane permeability, ONPG / β-galactosidase release; assay type: cell-based; settings: 1×MIC to 8×MIC, 90 min
Procedure: The effect on the integrity of bacterial […] was determined by determining the release amount of β-galactosidase from E. coli ML-35 (ATCC 43837) with ONPG (o-nitrobenzene-β-D-galactoside), thereby detecting the effect of the compounds on the permeability of E. coli IM.
Taking compounds 2, 8, 9, 13 and 15 of the present invention as examples, the IM permeability of E. coli with the presence of the antibacterial polypeptide compounds was analyzed. E. coli ML-35 cells were washed twice with PBS solution and resuspended in 0.9% sodium chloride solution. […] The cells were detected at 420 nm once every 5 mins using a multifunctional ELISA reader within a 90-min period of time.

[2] = tested on: human cervical cancer cell Hela; experiment: Cytotoxicity, MTT colorimetry; assay type: cell-based
Procedure: (§1) For cytotoxicity determination, the MTT colorimetry was used to evaluate the effects of the compounds on the proliferation of human cervical cancer cell Hela, human embryonic renal epithelial cell HEK293 and mouse mononuclear macrophage RAW264.7.
(§2) Taking compounds 2, 8, 9, 13 and 15 of the present invention as examples, the cytotoxicity of the antibacterial polypeptide compounds was analyzed. Three cell lines were employed for the present invention, namely human cervical cancer cell Hela, human embryonic renal epithelial cell HEK293 and mouse mononuclear macrophage RAW264.7. Hela cells were cultured in RPMI 1640 medium with 10% newborn calf serum, HEK293 cells and RAW264.7 cells were cultured in DMEM medium with 10% fetal bovine serum. Simply, cells (1×10^4 cells/well) were inoculated to a 96-well plate and incubated in an incubator set to 5% CO2 at 37° C. After 24 hours, compounds of different concentrations were added and incubated in the 5% CO2 incubator. After 24 hours, 20 μL of MTT solution with a concentration of 5 mg/mL was added to each well and incubated for 4 hours. After that, the medium was removed with a pipet, and 150 μL of DMSO added to dissolve the purple-blue formazan crystals. The solution was shaken in an oscillator for 5 mins before detecting the absorbance value at 570 nm using the ELISA reader, and then the survival rate was calculated with the formula: (OD dosing group/OD control group)×100% (n=3).

[3] = tested on: human embryonic renal epithelial cell HEK293; experiment: Cytotoxicity, MTT colorimetry; assay type: cell-based
Procedure: as §1, §2

[4] = tested on: mouse mononuclear macrophage RAW264.7; experiment: Cytotoxicity, MTT colorimetry; assay type: cell-based
Procedure: as §1, §2

Substance: Pro-Phe-Lys-Leu-Ser-Leu-His-Leu-NH2 (PFKLSLHL-NH2) [Compound J-1, reference compound]
- survival rate of mice (E. coli (ATCC 25922)): about 50%
- IM permeability of E. coli [1]: destroying the integrity of the E. coli IM in a dose-dependent manner

Substance: Pro-Trp-Orn-Leu-Orn-Leu-His-Leu-NH2 (PWXLXLHL; HELM PEPTIDE1{P.W.[Orn].L.[Orn].L.H.L.[am]}$$$$V2.0; N-terminus assumed; SMILES CC(C)C[C@H](NC(=O)[C@H](Cc1c[nH]cn1)NC(=O)[C@H](CC(C)C)NC(=O)[C@H](CCCN)NC(=O)[C@H](CC(C)C)NC(=O)[C@H](CCCN)NC(=O)[C@H](Cc1c[nH]c2ccccc12)NC(=O)[C@@H]1CCCN1)C(N)=O) [Compound 9]
- effect on proliferation (inhibitory activity) [2]: no inhibitory activity
- effect on proliferation (inhibitory activity) [3]: no inhibitory activity
- effect on proliferation (inhibitory activity) [4]: no inhibitory activity
- IM permeability of E. coli [1]: destroying the integrity of the E. coli IM in a dose-dependent manner
